Assay results taken from ChEMBL document CHEMBL4715697, “Synthesis and biological activity of benzamide DNA minor groove binders” (2016).

Assays:
Format in all cases: functional
U-251 [1] = assay: Growth inhibition of human U-251 cells assessed as cell growth at 0.01 uM incubated for 48 hrs by sulforhodamine B assay relative to control; details: read-out: Activity
K562 [2] = assay: Growth inhibition of human K562 cells incubated for 48 hrs by sulforhodamine B assay
A549 = assay: Growth inhibition of human A549/ATCC cells assessed as cell growth at 1 uM incubated for 48 hrs by sulforhodamine B assay relative to control; details: read-out: Activity
SK-OV-3 [3] = assay: Growth inhibition of human SK-OV-3 cells assessed as cell growth at 0.01 uM incubated for 48 hrs by sulforhodamine B assay relative to control; details: read-out: Activity
MOLT-4 = assay: Growth inhibition of human MOLT-4 cells assessed as cell growth at 1 uM incubated for 48 hrs by sulforhodamine B assay relative to control; details: read-out: Activity
U-251 [4] = assay: Growth inhibition of human U-251 cells incubated for 48 hrs by sulforhodamine B assay
SK-OV-3 [5] = assay: Growth inhibition of human SK-OV-3 cells assessed as cell growth at 100 uM incubated for 48 hrs by sulforhodamine B assay relative to control; details: read-out: Activity
CAKI-1 = assay: Growth inhibition of human CAKI-1 cells assessed as cell growth at 100 uM incubated for 48 hrs by sulforhodamine B assay relative to control; details: read-out: Activity
SF-268 = assay: Growth inhibition of human SF-268 cells assessed as cell growth at 0.01 uM incubated for 48 hrs by sulforhodamine B assay relative to control; details: read-out: Activity
SW-620 = assay: Growth inhibition of human SW-620 cells assessed as cell growth at 1 uM incubated for 48 hrs by sulforhodamine B assay relative to control; details: read-out: Activity
NCI/ADR-RES = assay: Growth inhibition of human NCI/ADR-RES cells assessed as cell growth at 0.01 uM incubated for 48 hrs by sulforhodamine B assay relative to control; details: read-out: Activity
NCI-H23 = assay: Growth inhibition of human NCI-H23 cells assessed as cell growth at 1 uM incubated for 48 hrs by sulforhodamine B assay relative to control; details: read-out: Activity
EKVX [6] = assay: Growth inhibition of human EKVX cells assessed as cell growth at 0.1 uM incubated for 48 hrs by sulforhodamine B assay relative to control; details: read-out: Activity
A498 = assay: Growth inhibition of human A498 cells assessed as cell growth at 1 uM incubated for 48 hrs by sulforhodamine B assay relative to control; details: read-out: Activity
OVCAR-4 = assay: Growth inhibition of human OVCAR-4 cells incubated for 48 hrs by sulforhodamine B assay
786-0 = assay: Growth inhibition of human 786-0 cells assessed as cell growth at 1 uM incubated for 48 hrs by sulforhodamine B assay relative to control; details: read-out: Activity
EKVX [7] = assay: Growth inhibition of human EKVX cells assessed as cell growth at 100 uM incubated for 48 hrs by sulforhodamine B assay relative to control; details: read-out: Activity
NCI-H460 = assay: Growth inhibition of human NCI-H460 cells incubated for 48 hrs by sulforhodamine B assay
HL-60(TB) = assay: Growth inhibition of human HL-60(TB) cells assessed as cell growth at 0.1 uM incubated for 48 hrs by sulforhodamine B assay relative to control; details: read-out: Activity
SK-OV-3 [8] = assay: Growth inhibition of human SK-OV-3 cells assessed as cell growth at 0.1 uM incubated for 48 hrs by sulforhodamine B assay relative to control; details: read-out: Activity
SN12C = assay: Growth inhibition of human SN12C cells incubated for 48 hrs by sulforhodamine B assay
SF-539 = assay: Growth inhibition of human SF-539 cells assessed as cell growth at 1 uM incubated for 48 hrs by sulforhodamine B assay relative to control; details: read-out: Activity
CCRF-CEM = assay: Growth inhibition of human CCRF-CEM cells assessed as cell growth at 0.01 uM incubated for 48 hrs by sulforhodamine B assay relative to control; details: read-out: Activity
Malme-3M = assay: Growth inhibition of human Malme-3M cells assessed as cell growth at 0.1 uM incubated for 48 hrs by sulforhodamine B assay relative to control; details: read-out: Activity
SK-MEL-5 = assay: Growth inhibition of human SK-MEL-5 cells incubated for 48 hrs by sulforhodamine B assay
UACC-257 = assay: Growth inhibition of human UACC-257 cells assessed as cell growth at 1 uM incubated for 48 hrs by sulforhodamine B assay relative to control; details: read-out: Activity
SNB-19 = assay: Growth inhibition of human SNB-19 cells assessed as cell growth at 1 uM incubated for 48 hrs by sulforhodamine B assay relative to control; details: read-out: Activity
M14 = assay: Growth inhibition of human M14 cells assessed as cell growth at 1 uM incubated for 48 hrs by sulforhodamine B assay relative to control; details: read-out: Activity
Hs-578T = assay: Growth inhibition of human Hs-578T cells assessed as cell growth at 1 uM incubated for 48 hrs by sulforhodamine B assay relative to control; details: read-out: Activity
SK-OV-3 [9] = assay: Growth inhibition of human SK-OV-3 cells incubated for 48 hrs by sulforhodamine B assay
SF-295 = assay: Growth inhibition of human SF-295 cells assessed as cell growth at 100 uM incubated for 48 hrs by sulforhodamine B assay relative to control; details: read-out: Activity
UO-31 = assay: Growth inhibition of human UO-31 cells assessed as cell growth at 0.01 uM incubated for 48 hrs by sulforhodamine B assay relative to control; details: read-out: Activity
K562 [10] = assay: Growth inhibition of human K562 cells assessed as cell growth at 0.01 uM incubated for 48 hrs by sulforhodamine B assay relative to control; details: read-out: Activity
RXF 393 = assay: Growth inhibition of human RXF 393 cells assessed as cell growth at 100 uM incubated for 48 hrs by sulforhodamine B assay relative to control; details: read-out: Activity
KM12 = assay: Growth inhibition of human KM12 cells assessed as cell growth at 0.1 uM incubated for 48 hrs by sulforhodamine B assay relative to control; details: read-out: Activity
[11] = read-out: LC50 (the source's name)
[12] = read-out: pLC50 (the source's name) (converted)

Structure (SMILES): CC(=O)Nc1cc(CCl)cc(NC(=O)c2ccc(C(=O)Nc3cccc(NC(=O)CCCN(C)C)c3)cc2)c1
- growth at 0.01 µM (U-251 [1]): 98%
- GI50 (K562 [2]; read-out: GI50): > 100 µM
- CC50 (K562 [2]; [11]): > 100 µM
- TGI (K562 [2]; read-out: TGI): > 100 µM
- GI50 (K562 [2]; read-out: pGI50 (converted)): > 100 µM
- CC50 (K562 [2]; [12]): > 100 µM
- TGI (K562 [2]; read-out: pTGI): > 100 µM
- growth at 1 µM (A549): 94%
- growth at 0.01 µM (SK-OV-3 [3]): 106%
- growth at 1 µM (MOLT-4): 99%
- GI50 (U-251 [4]; read-out: GI50): > 100 µM
- CC50 (U-251 [4]; [11]): > 100 µM
- TGI (U-251 [4]; read-out: TGI): > 100 µM
- GI50 (U-251 [4]; read-out: pGI50 (converted)): > 100 µM
- CC50 (U-251 [4]; [12]): > 100 µM
- TGI (U-251 [4]; read-out: pTGI): > 100 µM
- growth at 100 µM (SK-OV-3 [5]): 109%
- growth at 100 µM (CAKI-1): 100%
- growth at 0.01 µM (SF-268): 100%
- growth at 1 µM (SW-620): 107%
- growth at 0.01 µM (NCI/ADR-RES): 105%
- growth at 1 µM (NCI-H23): 93%
- growth at 0.1 µM (EKVX [6]): 87%
- growth at 1 µM (A498): 73%
- GI50 (OVCAR-4; read-out: GI50): > 100 µM
- LC50 (concentration killing 50% of cells) (OVCAR-4; read-out: LC50): > 100 µM
- TGI (OVCAR-4; read-out: TGI): > 100 µM
- GI50 (OVCAR-4; read-out: pGI50 (converted)): > 100 µM
- LC50 (concentration killing 50% of cells) (OVCAR-4; read-out: pLC50 (converted)): > 100 µM
- TGI (OVCAR-4; read-out: pTGI): > 100 µM
- growth at 1 µM (786-0): 105%
- growth at 100 µM (EKVX [7]): 84%
- GI50 (NCI-H460; read-out: GI50): > 100 µM
- CC50 (NCI-H460; [11]): > 100 µM
- TGI (NCI-H460; read-out: TGI): > 100 µM
- GI50 (NCI-H460; read-out: pGI50 (converted)): > 100 µM
- CC50 (NCI-H460; [12]): > 100 µM
- TGI (NCI-H460; read-out: pTGI): > 100 µM
- growth at 0.1 µM (HL-60(TB)): 93%
- growth at 0.1 µM (SK-OV-3 [8]): 103%
- GI50 (SN12C; read-out: GI50): > 100 µM
- CC50 (SN12C; [11]): > 100 µM
- TGI (SN12C; read-out: TGI): > 100 µM
- GI50 (SN12C; read-out: pGI50 (converted)): > 100 µM
- CC50 (SN12C; [12]): > 100 µM
- TGI (SN12C; read-out: pTGI): > 100 µM
- growth at 1 µM (SF-539): 104%
- growth at 0.01 µM (CCRF-CEM): 107%
- growth at 0.1 µM (Malme-3M): 104%
- GI50 (SK-MEL-5; read-out: GI50): > 100 µM
- LC50 (SK-MEL-5; read-out: LC50): > 100 µM
- TGI (SK-MEL-5; read-out: TGI): > 100 µM
- GI50 (SK-MEL-5; read-out: pGI50 (converted)): > 100 µM
- LC50 (SK-MEL-5; read-out: pLC50 (converted)): > 100 µM
- TGI (SK-MEL-5; read-out: pTGI): > 100 µM
- growth at 1 µM (UACC-257): 95%
- growth at 1 µM (SNB-19): 104%
- growth at 1 µM (M14): 103%
- growth at 1 µM (Hs-578T): 109%
- GI50 (SK-OV-3 [9]; read-out: GI50): > 100 µM
- LC50 (concentration killing 50% of cells) (SK-OV-3 [9]; read-out: LC50): > 100 µM
- TGI (SK-OV-3 [9]; read-out: TGI): > 100 µM
- GI50 (SK-OV-3 [9]; read-out: pGI50 (converted)): > 100 µM
- LC50 (concentration killing 50% of cells) (SK-OV-3 [9]; read-out: pLC50 (converted)): > 100 µM
- TGI (SK-OV-3 [9]; read-out: pTGI): > 100 µM
- growth at 100 µM (SF-295): 38%
- growth at 0.01 µM (UO-31): 94%
- growth at 0.01 µM (K562 [10]): 97%
- growth at 100 µM (RXF 393): 96%
- growth at 0.1 µM (KM12): 108%
